# Experimental data from patent US12344597B2, “Alkoxy-substituted pyridinyl derivatives as LPA1 receptor antagonists and their use in the treatment of fibrosis” (IDORSIA PHARMACEUTICALS LTD, priority 2018, dated 2025).
# Biological target: human LPA1 receptor (Homo sapiens (Human), UniProt Q92633)
# Experiment: Beta-arrestin recruitment assay to determine IC50 values for human LPAR1
# Assay type: cell-based
# Settings: antagonist mode, Tango EDG2-bla U2OS cells, LPA 18:1 500 nM final
# Method in brief: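 Antagonist IC50 = concentration giving 50% inhibition of maximal LPA response. Read-out is beta-lactamase reporter activity after arrestin-protease recruitment in U2OS cells bearing LPA1-TEV-Gal4-VP16 construct; cells pre-incubated 20 h, 37 °C, 5% CO2.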
# Sequence of human LPA1 receptor (Q92633 whole entry): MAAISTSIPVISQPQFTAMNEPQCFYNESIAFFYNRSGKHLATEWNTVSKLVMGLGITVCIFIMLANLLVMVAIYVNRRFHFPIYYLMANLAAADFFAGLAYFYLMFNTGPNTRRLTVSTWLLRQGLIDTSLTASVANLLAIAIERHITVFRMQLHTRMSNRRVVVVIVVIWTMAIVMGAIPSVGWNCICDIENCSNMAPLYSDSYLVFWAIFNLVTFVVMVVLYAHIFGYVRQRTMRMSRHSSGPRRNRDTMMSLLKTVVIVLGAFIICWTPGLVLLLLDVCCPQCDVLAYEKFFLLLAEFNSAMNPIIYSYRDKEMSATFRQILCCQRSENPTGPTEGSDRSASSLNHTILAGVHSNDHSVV
row,Compound,IC50
1,"Cc1ccc(NC(=O)C2(c3ccccc3C(C)C)CN(CCCC(C)(C)C#N)C2)c(OC(F)F)n1 [Ex 11-60, 1-(4-cyano-4-methylpentyl)-N-(2-(difluoromethoxy)-6-methylpyridin-3-yl)-3-(2-isopropylphenyl)azetidine-3-carboxamide]",47 nM
2,"Cc1ccc(NC(=O)C2(c3ccccc3C(C)C)CN(C(=O)CS(N)(=O)=O)C2)c(OC(F)F)n1 [Ex 12-4, N-(2-(difluoromethoxy)-6-methylpyridin-3-yl)-3-(2-isopropylphenyl)-1-(2-sulfamoylacetyl)azetidine-3-carboxamide]",20 nM
3,"Cc1ccc(NC(=O)C2(c3ccccc3C(C)C)CN(C(=O)C[C@](C)(O)C(=O)O)C2)c(OC(F)F)n1 [Ex 12-117, (S)-4-(3-((2-(difluoromethoxy)-6-methylpyridin-3-yl)carbamoyl)-3-(2-isopropylphenyl)azetidin-1-yl)-2-hydroxy-2-methyl-4-oxobutanoic acid]",7 nM
4,"Cc1ccc(NC(=O)C2(c3ccccc3C(C)C)CN(CCN(C)C)C2)c(OC(F)F)n1 [Ex 11-78, N-(2-(difluoromethoxy)-6-methylpyridin-3-yl)-1-(2-(dimethylamino)ethyl)-3-(2-isopropylphenyl)azetidine-3-carboxamide]",191 nM
5,"Cc1ccc(NC(=O)C2(c3ccccc3C(C)C)CN(CC(C)(C)CC(=O)O)C2)c(OC(F)F)n1 [Ex 11-33, 4-(3-((2-(difluoromethoxy)-6-methylpyridin-3-yl)carbamoyl)-3-(2-isopropylphenyl)azetidin-1-yl)-3,3-dimethylbutanoic acid]",8 nM
6,"Cc1ccc(NC(=O)C2(c3ccccc3C(C)C)CN(C(=O)CCNCCO)C2)c(OC(F)F)n1 [Ex 12-60, N-(2-(difluoromethoxy)-6-methylpyridin-3-yl)-1-(3-((2-hydroxyethyl)amino)propanoyl)-3-(2-isopropylphenyl)azetidine-3-carboxamide]",58 nM
7,COCCN(CC(=O)O)CC(=O)N1CC(C(=O)Nc2ccc(C)nc2OC(F)F)(c2ccccc2C(C)C)C1 [Ex 55],44 nM
8,"Cc1ccc(NC(=O)C2(c3ccccc3C(C)C)CN(C(=O)Cn3cnnc3)C2)c(OC(F)F)n1 [Ex 12-23, 1-(2-(4H-1,2,4-triazol-4-yl)acetyl)-N-(2-(difluoromethoxy)-6-methylpyridin-3-yl)-3-(2-isopropylphenyl)azetidine-3-carboxamide]",21 nM
9,"Cc1ccc(NC(=O)C2(c3ccccc3C(C)C)CN(C(=O)CC3CCNCC3)C2)c(OC(F)F)n1 [Ex 12-138, N-(2-(difluoromethoxy)-6-methylpyridin-3-yl)-3-(2-isopropylphenyl)-1-(2-(piperidin-4-yl)acetyl)azetidine-3-carboxamide]",43 nM
10,"Cc1ccc(NC(=O)C2(c3ccccc3C(C)C)CN(C(=O)C[C@@](C)(O)C(=O)O)C2)c(OC(F)F)n1 [Ex 12-116, (R)-4-(3-((2-(difluoromethoxy)-6-methylpyridin-3-yl)carbamoyl)-3-(2-isopropylphenyl)azetidin-1-yl)-2-hydroxy-2-methyl-4-oxobutanoic acid]",63 nM
11,"Cc1ccc(NC(=O)C2(c3ccccc3C(C)C)CCN(C(=O)C[C@H](O)C(=O)O)CC2)c(OC(F)F)n1 [Ex 12-37, (S)-4-(4-((2-(difluoromethoxy)-6-methylpyridin-3-yl)carbamoyl)-4-(2-isopropylphenyl)piperidin-1-yl)-2-hydroxy-4-oxobutanoic acid]",22 nM
12,"Cc1ccc(NC(=O)C2(c3ccccc3C(C)C)CN(Cc3cn(CC(=O)O)nn3)C2)c(OC(F)F)n1 [Ex 11-49, 2-(4-((3-((2-(difluoromethoxy)-6-methylpyridin-3-yl)carbamoyl)-3-(2-isopropylphenyl)azetidin-1-yl)methyl)-1H-1,2,3-triazol-1-yl)acetic acid]",547 nM
13,"Cc1ccc(NC(=O)C2(c3ccccc3C3CC3)CNC2)c(OC(F)F)n1 [Ex 23, 3-(2-cyclopropylphenyl)-N-(2-(difluoromethoxy)-6-methylpyridin-3-yl)azetidine-3-carboxamide]",664 nM
14,"Cc1ccc(NC(=O)C2(c3ccccc3C3CCC3)CNC2)c(OC(F)F)n1 [Ex 24, 3-(2-cyclobutylphenyl)-N-(2-(difluoromethoxy)-6-methylpyridin-3-yl)azetidine-3-carboxamide]",31 nM
15,"Cc1ccc(NC(=O)C2(c3ccccc3C3CCCC3)CNC2)c(OC(F)F)n1 [Ex 25, 3-(2-cyclopentylphenyl)-N-(2-(difluoromethoxy)-6-methylpyridin-3-yl)azetidine-3-carboxamide]",8.6 nM
16,"Cc1ccc(NC(=O)C2(c3ccccc3C(C)C)CCN(C(=O)CC(C)(C)C(=O)O)C2)c(OC(F)F)n1 (centres unmarked) [Ex 12-83, 4-(3-((2-(difluoromethoxy)-6-methylpyridin-3-yl)carbamoyl)-3-(2-isopropylphenyl)pyrrolidin-1-yl)-2,2-dimethyl-4-oxobutanoic acid]",24 nM
17,"Cc1ccc(NC(=O)C2(c3ccccc3C(C)C)CN(C(=O)C[C@@H](O)CC(=O)O)C2)c(OC(F)F)n1 [Ex 12-105, (R)-5-(3-((2-(difluoromethoxy)-6-methylpyridin-3-yl)carbamoyl)-3-(2-isopropylphenyl)azetidin-1-yl)-3-hydroxy-5-oxopentanoic acid]",54 nM
18,"COC(=O)CCC(=O)N1CC(C(=O)Nc2ccc(C)nc2OC)(c2ccccc2C(C)C)C1 [Ex 12-61, Methyl 4-(3-(2-isopropylphenyl)-3-((2-methoxy-6-methylpyridin-3-yl)carbamoyl)azetidin-1-yl)-4-oxobutanoate]",276 nM
19,"Cc1ccc(NC(=O)C2(c3ccccc3C(C)C)CN(C(=O)C[C@H]3COCCN3)C2)c(OC(F)F)n1 [Ex 12-44, (S)-N-(2-(difluoromethoxy)-6-methylpyridin-3-yl)-3-(2-isopropylphenyl)-1-(2-(morpholin-3-yl)acetyl)azetidine-3-carboxamide]",79 nM
20,"Cc1ccc(NC(=O)C2(c3ccccc3C(C)C)CN(C(=O)C[C@@H](O)C(=O)O)C2)c(OC(F)F)n1 [Ex 12-35, (R)-4-(3-((2-(difluoromethoxy)-6-methylpyridin-3-yl)carbamoyl)-3-(2-isopropylphenyl)azetidin-1-yl)-2-hydroxy-4-oxobutanoic acid]",41 nM

# Next, values leading:
row,IC50,Compound
1,12 nM,"Cc1ccc(NC(=O)C2(c3ccccc3C(C)C)CN(C(=O)NC(C)(C)CC(=O)O)C2)c(OC(F)F)n1 [Ex 17-2, 3-(3-((2-(difluoromethoxy)-6-methylpyridin-3-yl)carbamoyl)-3-(2-isopropylphenyl)azetidine-1-carboxamido)-3-methylbutanoic acid]"
2,34 nM,"Cc1ccc(NC(=O)C2(c3ccccc3C(C)C)CN(c3ncc(C(=O)O)o3)C2)c(OC(F)F)n1 [Ex 18-32, 2-(3-((2-(difluoromethoxy)-6-methylpyridin-3-yl)carbamoyl)-3-(2-isopropylphenyl)azetidin-1-yl)oxazole-5-carboxylic acid]"
3,46 nM,"Cc1ccc(NC(=O)C2(c3ccccc3C(C)C)CN(C(=O)NC3(C(=O)O)CC3)C2)c(OC(F)F)n1 [Ex 17-11, 1-(3-((2-(difluoromethoxy)-6-methylpyridin-3-yl)carbamoyl)-3-(2-isopropylphenyl)azetidine-1-carboxamido)cyclopropane-1-carboxylic acid]"
4,7 nM,"Cc1ccc(NC(=O)C2(c3ccccc3C(C)C)CCN(S(=O)(=O)CCC(=O)O)CC2)c(OC(F)F)n1 [Ex 13-8, 3-((4-((2-(difluoromethoxy)-6-methylpyridin-3-yl)carbamoyl)-4-(2-isopropylphenyl)piperidin-1-yl)sulfonyl)propanoic acid]"
5,13 nM,"CC(C)c1ccccc1C1(C(=O)Nc2ncc(Br)cc2OC(F)F)CN(CCC(C)(C)C(=O)O)C1 [Ex 78-3, 4-(3-((5-bromo-3-(difluoromethoxy)pyridin-2-yl)carbamoyl)-3-(2-isopropylphenyl)azetidin-1-yl)-2,2-dimethylbutanoic acid]"
6,50 nM,"COc1nc(C)ccc1NC(=O)C1(c2ccccc2C(C)C)CN(S(N)(=O)=O)C1 [Ex 15-16, 3-(2-isopropylphenyl)-N-(2-methoxy-6-methylpyridin-3-yl)-1-sulfamoylazetidine-3-carboxamide]"
7,37 nM,"CC(C)c1ccccc1C1(C(=O)Nc2cccnc2OC(F)F)CN(S(=O)(=O)CCC(=O)OCc2ccccc2)C1 [Ex 13-9, benzyl 3-((3-((2-(difluoromethoxy)pyridin-3-yl)carbamoyl)-3-(2-isopropylphenyl)azetidin-1-yl)sulfonyl)propanoate]"
8,14 nM,"Cc1ccc(NC(=O)C2(c3ccccc3C(C)C)CN(C(=O)OC3(C(=O)O)CC3)C2)c(OC(F)F)n1 [Ex 14-8, 1-((3-((2-(difluoromethoxy)-6-methylpyridin-3-yl)carbamoyl)-3-(2-isopropylphenyl)azetidine-1-carbonyl)oxy)cyclopropane-1-carboxylic acid]"
9,65 nM,"COC(=O)C(C)(C)CC(=O)N1CC(C(=O)Nc2ncc(Br)cc2OC(F)F)(c2ccccc2C(C)C)C1 [Ex 79-1, Methyl 4-(3-((5-bromo-3-(difluoromethoxy)pyridin-2-yl)carbamoyl)-3-(2-isopropylphenyl)azetidin-1-yl)-2,2-dimethyl-4-oxobutanoate]"
10,7 nM,"Cc1ccc(NC(=O)C2(c3ccccc3C(C)C)CN(c3cccc(C(=O)O)n3)C2)c(OC(F)F)n1 [Ex 18-3, 6-(3-((2-(difluoromethoxy)-6-methylpyridin-3-yl)carbamoyl)-3-(2-isopropylphenyl)azetidin-1-yl)picolinic acid]"
11,76 nM,1-((3-((3-(difluoromethoxy)-5-methylpyridin-2-yl)carbamoyl)-3-(2-isopropylphenyl)azetidine-1-carbonyl)oxy)cyclopropane-1-carboxylic acid [Ex 83-3]
12,2 nM,"Cc1ccc(NC(=O)C2(c3ccccc3C(C)C)CN(c3ncc(C#N)cn3)C2)c(OC(F)F)n1 [Ex 18-24, 1-(5-cyanopyrimidin-2-yl)-N-(2-(difluoromethoxy)-6-methylpyridin-3-yl)-3-(2-isopropylphenyl)azetidine-3-carboxamide]"
